Experimental findings from patent US10294237B2, “Bicyclic heterocyclic amide derivative” (Sumitomo Dainippon Pharma Co., Ltd., priority 2015, dated 2019) are described below.

Counter-ions that a name gives are not always drawn.

The test system of assay [1] is HCT-116 cells. Nature of the assay: Test for inhibiting sphere-forming ability of cancer cells. It counts as cell-based. As to conditions: HCT-116 spheres, non-adherent, serum-free, 4 days, CellTiter-Glo, read-out: IC50 (Sphere IC50 value; concentration for 50% inhibition of cell proliferation). On the procedure:
(§1) The reliable methods established for measuring the self-renewal ability of cells which is one of the CSC's properties include a method for measuring the sphere-forming ability of cancer cells in non-adherent condition in the absence of serum (Cancer Res 65, 5506-5511 (2005)). HCT-116 cells were available from the American Type Culture Collection (ATCC). HCT-116 cells were cultured at 37° C. and 5% CO2 using the McCoy's 5a medium containing 10% fetal bovine serum (FBS) and 1% penicillin/streptomycin. HCT-116 cells were seeded in a 384 Well Black Clear Bottom Ultra-Low Attachment Microplate (Corning Cat. No. 3827) in an amount of 350-800 cells/well using the DMEM/F12 medium containing 2% B27 supplement (GIBCO), 20 ng/mL epidermal growth factor (EGF) (peprotech), 10 ng/mL basic fibroblast growth factor (bFGF) (peprotech), 5 μg/mL insulin (Sigma), and 1% penicillin/streptomycin. The test compounds were added into each well to adjust the final concentration of DMSO to 0.1%, and the cells were cultured for 4 days. The number of viable cells in each well was then measured with CellTiter-Glo® Luminescent Cell Viability Assay (Promega) to calculate the concentration of each test compound for 50% inhibition of cell proliferation (Sphere IC50 value; μmol/L).
The experiment of Test Example 1 was performed for the compounds of each Example. The concentrations of each test compound for 50% inhibition of cell profeliration (Sphere IC50 value; μmol/L) are shown in the following Table.
Background: ATP-based viability assays read luminescence as a measure of living cells.

In assay [2] the test system is HCT-116 cells. Nature of the assay: Test for inhibiting sphere-forming ability of cancer cells (in the presence of BSA). It counts as cell-based. As to conditions: HCT-116 spheres, non-adherent, 5% BSA, 4 days, CellTiter-Glo, read-out: IC50 (Sphere IC50 value; concentration for 50% inhibition of cell proliferation). The procedure: as §1, with “HCT-116” for “The reliable methods established for measuring the self-renewal ability of cells which is one of the CSC's properties include a method for measuring the sphere-forming ability of cancer cells in non-adherent condition in the absence of serum (Cancer Res 65, 5506-5511 (2005)). HCT-116”, “(Sigma), 5% bovine serum albumin (BSA),” for “(Sigma),”
The experiment of Test Example 2 was performed for the compounds of each Example. The concentrations of each test compound for 50% inhibition of cell profeliration (Sphere IC50 value; μmol/L) are shown in the following Table.

A word on the IC50: it is the concentration at which inhibition is half-maximal. On to `O=C(Nc1cn(Cc2ccc(F)c(F)c2)cn1)c1ccc2c(c1)CCNC2` [Example 73], for which the IC50 in the assay with HCT-116 cells [1] came to 610 nM; with HCT-116 cells [2], 540 nM.

Regarding `O=C(Nc1cn(Cc2cc(F)c(F)c(F)c2)cn1)c1ccc2c(c1)CCNC2` [Example 25, N-[1-(3,4,5-Trifluorobenzyl)-1H-imidazol-4-yl]-(1,2,3,4-tetrahydroisoquinoline-6-carboxamide ditrifluoroacetate], the IC50 in the assay on HCT-116 cells [1] (Homo sapiens, 96 h) came to 60 nM; with HCT-116 cells [2] (Homo sapiens, HCT-116, 96 h) it was 90 nM.

For the molecule `Cc1cccc(Cn2cnc(NC(=O)c3ccc4c(c3)CCNC4)c2)c1` [Example 80], the IC50 in the assay on HCT-116 cells [1] is 620 nM; in the assay with HCT-116 cells [2], 600 nM.

For the molecule `O=C(Nc1cn(CCCOc2ccccc2)cn1)c1cnc2c(c1)CCNC2` [Example 117], the IC50 with HCT-116 cells [1] turned out to be 6810 nM; in the assay on HCT-116 cells [2] it was 5680 nM.

In the case of `O=C(Nc1cn(CCOc2ccccc2)cn1)c1cnc2c(c1)CCNC2` [Example 116], the IC50 was 5990 nM in the assay with HCT-116 cells [1] and 1970 nM in the assay with HCT-116 cells [2].

Consider `O=C(Nc1cn(Cc2cccc(Oc3ccccc3)c2)cn1)c1cnc2c(c1)CCNC2` [Example 50, N-[1-(3-phenoxybenzyl)-1H-imidazol-4-yl]-5,6,7,8-tetrahydro-1,7-naphthyridine-3-carboxamide], for which the IC50 with HCT-116 cells [1] (Homo sapiens, 96 h) turned out to be 50 nM; in the assay on HCT-116 cells [2] (Homo sapiens, HCT-116, 96 h), 660 nM.

Take `O=C(Nc1cn(Cc2cccc(Oc3ccccc3)c2)cn1)c1ccc2c(c1)CCNC2` [Example 89, N-[1-(3-phenoxybenzyl)-1H-imidazol-4-yl]-1,2,3,4-tetrahydroisoquinoline-6-carboxamide]: the IC50 in the assay on HCT-116 cells [1] (Homo sapiens, 96 h) turned out to be 70 nM; with HCT-116 cells [2] (Homo sapiens, HCT-116, 96 h), 640 nM.

`O=C(Nc1cn(Cc2ccccc2)cn1)c1ccc2c(c1)CCNC2` [Example 71]: the half-inhibitory concentration (IC50) with HCT-116 cells [1] worked out at 920 nM; in the assay on HCT-116 cells [2], 770 nM.

On to `Cc1ccccc1Cn1cnc(NC(=O)c2ccc3c(c2)CCNC3)c1` [Example 76], for which the results for the IC50 in the assay with HCT-116 cells [1] and with HCT-116 cells [2] were 680 nM and 590 nM, respectively.

Consider `O=C(Nc1cn(Cc2ccc(Cl)c(Cl)c2)cn1)c1ccc2c(c1)CCNC2` [Example 102, N-[1-(3,4-dichlorobenzyl)-1H-imidazol-4-yl]-1,2,3,4-tetrahydroisoquinoline-6-carboxamide], for which the IC50 in the assay on HCT-116 cells [1] (Homo sapiens, 96 h) turned out to be 60 nM; in the assay on HCT-116 cells [2] (Homo sapiens, HCT-116, 96 h), 60 nM.

`O=C(Nc1cn(Cc2cc(F)cc(Cl)c2)cn1)c1cnc2c(c1)CCNC2` [Example 52, N-[1-(3-chloro-5-fluorobenzyl)-1H-imidazol-4-yl]-5,6,7,8-tetrahydro-1,7-naphthyridine-3-carboxamide]: the IC50 was 60 nM in the assay on HCT-116 cells [1] (Homo sapiens, 96 h) and 60 nM in the assay with HCT-116 cells [2] (Homo sapiens, HCT-116, 96 h).

On to `O=C1CCc2cc(C(=O)Nc3cn(Cc4cccc(C(F)(F)F)c4)cn3)ccc2C1` [Example 110, 6-Oxo-N-{1-[3-(trifluoromethyl)benzyl]-1H-imidazol-4-yl}-5,6,7,8-tetrahydronaphthalene-2-carboxamide], for which the IC50 was 680 nM in the assay with HCT-116 cells [1] (Homo sapiens, 96 h) and 580 nM with HCT-116 cells [2] (Homo sapiens, HCT-116, 96 h).

With `O=C(Nc1cn(Cc2cccc(C(F)(F)F)c2)cn1)c1ccc2c(c1)CCC1(C2)OCCO1` [Example 109, N-{1-[3-(Trifluoromethyl)benzyl]-1H-imidazol-4-yl}-3′,4′-dihydro-1′H-spiro[1,3-dioxolane-2,2′-naphthalene]-6′-carboxamide], the half-inhibitory concentration (IC50) with HCT-116 cells [1] (Homo sapiens, 96 h) was 7070 nM.

Consider `O=C(Nc1cn(Cc2cc(F)c(F)c(F)c2)cn1)c1cc2c(cn1)CNCC2` [Example 8, N-[1-(3,4,5-trifluorobenzyl)-1H-imidazol-4-yl]-5,6,7,8-tetrahydro-2,7-naphthyridine-3-carboxamide], for which the IC50 worked out at 90 nM in the assay with HCT-116 cells [1] (Homo sapiens, 96 h) and 440 nM in the assay with HCT-116 cells [2] (Homo sapiens, HCT-116, 96 h).

As for `O=C(Nc1cn(Cc2cc(Cl)cc(OC(F)(F)F)c2)cn1)c1cnc2c(c1)CCNC2` [Example 70, N-{1-[3-chloro-5-(trifluoromethoxy)benzyl]-1H-imidazol-4-yl}-5,6,7,8-tetrahydro-1,7-naphthyridine-3-carboxamide], the 50% inhibitory concentration (IC50) with HCT-116 cells [1] (Homo sapiens, 96 h) is 40 nM; in the assay with HCT-116 cells [2] (Homo sapiens, HCT-116, 96 h) it was 60 nM.

Take `O=C1Nc2cc(C(=O)Nc3cn(Cc4cccc(C(F)(F)F)c4)cn3)cnc2CO1` [Example 24]: the IC50 in the assay on HCT-116 cells [1] (Homo sapiens, 96 h) worked out at 520 nM; in the assay on HCT-116 cells [2] (Homo sapiens, HCT-116, 96 h), 670 nM.

For `O=C(Nc1cn(Cc2ccccc2)cn1)c1cnc2c(c1)CCNC2` [Example 59], the results for the IC50 with HCT-116 cells [1] and in the assay with HCT-116 cells [2] were 610 nM and 370 nM, respectively.

Take `O=C(Nc1cn(Cc2cc(Cl)cc(Cl)c2)cn1)c1ccc2c(c1)CCNC2` [Example 101, N-[1-(3,5-dichlorobenzyl)-1H-imidazol-4-yl]-1,2,3,4-tetrahydroisoquinoline-6-carboxamide]: the IC50 amounted to 70 nM in the assay with HCT-116 cells [1] (Homo sapiens, 96 h) and 60 nM in the assay with HCT-116 cells [2] (Homo sapiens, HCT-116, 96 h).

In the case of `O=C(Nc1cn(Cc2cccc(C(F)(F)F)c2)cn1)c1ccc2c(c1)CCNC2` [Example 26], the IC50 with HCT-116 cells [1] (Homo sapiens, 96 h) worked out at 80 nM; in the assay on HCT-116 cells [2] (Homo sapiens, HCT-116, 96 h), 100 nM.

Consider `O=C(Nc1cn(CCC2CCCCC2)cn1)c1cnc2c(c1)CCNC2` [Example 56], for which the IC50 in the assay on HCT-116 cells [1] turned out to be 70 nM; in the assay with HCT-116 cells [2], 160 nM.

Consider `Cc1ccc(Cn2cnc(NC(=O)c3ccc4c(c3)CCNC4)c2)cc1C(F)(F)F` [Example 97, N-{1-[4-methyl-3-(trifluoromethyl)benzyl]-1H-imidazol-4-yl}-1,2,3,4-tetrahydroisoquinoline-6-carboxamide], for which the IC50 in the assay with HCT-116 cells [1] (Homo sapiens, 96 h) is 70 nM; in the assay on HCT-116 cells [2] (Homo sapiens, HCT-116, 96 h), 590 nM.

Regarding `O=C(Nc1cn(Cc2ccc3c(c2)OCO3)cn1)c1cnc2c(c1)CCNC2` [Example 119], the IC50 is 730 nM in the assay with HCT-116 cells [1] and 630 nM in the assay on HCT-116 cells [2].

Regarding `O=C(Nc1cn(Cc2cccc(C(F)(F)F)c2)cn1)c1ccc2c(c1)CNCC2` [Example 18], the IC50 in the assay on HCT-116 cells [1] (Homo sapiens, 96 h) came to 670 nM; with HCT-116 cells [2] (Homo sapiens, HCT-116, 96 h), 700 nM.

As for `O=C(Nc1cn(Cc2ccc(C(F)(F)F)o2)cn1)c1ccc2c(c1)CCNC2` [Example 104], the IC50 was 620 nM with HCT-116 cells [1] (Homo sapiens, 96 h) and 530 nM in the assay with HCT-116 cells [2] (Homo sapiens, HCT-116, 96 h).

In the case of `O=C(/C=C/c1ccc2c(c1)OCCO2)Nc1cn(Cc2cccc(Cl)c2)cn1` [Example 39], the IC50 in the assay on HCT-116 cells [1] (Homo sapiens, 96 h) is 910 nM; in the assay on HCT-116 cells [2] (Homo sapiens, HCT-116, 96 h), 790 nM.

As to `Cc1c(NC(=O)c2ccc3c(c2)CCNC3)ncn1Cc1cccc(C(F)(F)F)c1` [Example 21], the IC50 in the assay with HCT-116 cells [1] (Homo sapiens, 96 h) worked out at 6200 nM; with HCT-116 cells [2] (Homo sapiens, HCT-116, 96 h) it was 6190 nM.

`O=C(Nc1cn(Cc2cccc(C(F)(F)F)c2)cn1)c1ccc2c(c1)CCOC2` [Example 23]: the half-inhibitory concentration (IC50) with HCT-116 cells [1] (Homo sapiens, 96 h) came to 4940 nM.

As to `O=C(Nc1cn(Cc2cccc(C(F)(F)F)c2)cn1)c1ccc2c(c1)CNC2` [Example 33], the IC50 with HCT-116 cells [1] (Homo sapiens, 96 h) stood at 1480 nM.

With `CC1(C)CNCc2ccc(C(=O)Nc3cn(Cc4cccc(C(F)(F)F)c4)cn3)cc21` [Example 32], in the assay with HCT-116 cells [1] (Homo sapiens, 96 h), the IC50 worked out at 72300 nM.

Take `Nc1cccc(Cn2cnc(NC(=O)c3cnc4c(c3)CCNC4)c2)c1` [Example 67]: in the assay on HCT-116 cells [2], the IC50 came out at 8520 nM.

With `O=C(Nc1cn(Cc2cccc(C(F)(F)F)c2)cn1)c1nc2c(s1)CCNC2` [Example 20], the IC50 in the assay on HCT-116 cells [1] (Homo sapiens, 96 h) came to 65200 nM.

On to `O=C(Nc1cn(Cc2cccc(O)c2)cn1)c1ccc2c(c1)CCNC2` [Example 107], for which the IC50 in the assay with HCT-116 cells [2] (Homo sapiens, HCT-116, 96 h) was found to be 6340 nM.

Turning to `CN1CCc2cc(C(=O)Nc3cn(Cc4cccc(C(F)(F)F)c4)cn3)ccc2C1` [Example 30, 2-Methyl-N-{1-[3-(trifluoromethyl)benzyl]-1H-imidazol-4-yl}-1,2,3,4-tetrahydroisoquinoline-6-carboxamide], the IC50 in the assay on HCT-116 cells [1] (Homo sapiens, 96 h) came out at 6160 nM.

As for `COc1ccc(Cn2cnc(NC(=O)c3ccc4c(c3)CCNC4)c2)cc1` [Example 84], the IC50 in the assay with HCT-116 cells [1] is 6780 nM.

Regarding `O=C(Nc1cn(CC2CCOCC2)cn1)c1cnc2c(c1)CCNC2` [Example 118], the IC50 in the assay on HCT-116 cells [2] came out at 6180 nM.

Take `CC(=O)N1CCc2cc(C(=O)Nc3cn(Cc4cccc(C(F)(F)F)c4)cn3)ccc2C1` [Example 108, 2-Acetyl-N-{1-[3-(trifluoromethyl)benzyl]-1H-imidazol-4-yl}-1,2,3,4-tetrahydroisoquinoline-6-carboxamide trifluoroacetate]: in the assay with HCT-116 cells [1] (Homo sapiens, 96 h), the IC50 amounted to 6630 nM.
